# Laboratory results taken from US4839366A, “Methylthioquinolyl guanidine derivative, process of preparation thereof and pharmaceutical compositions therefrom” (Chiesi Farmaceutici S.p.A., priority 1983, dated 1989).
# Like-named read-outs stand apart in the source and are kept apart here.
# How the values were obtained:
# [1] = Acute toxicity, single oral administration; conditions: mouse, in vivo, read-out: LD50 approx
# Experimental: The toxicity for single administration has been determined by the oral route in IVa:NMRI (SPF) fasted male mice, with water ad libitum, 18 hours before the experiment.
# [2] = test system: gastric ulcers in the rat; assay: Acute effect on gastrointestinal tract: gastric ulcers in the rat; assay type: in vivo; conditions: for Potency ratio relative to timegadine: gastric ulcers, UD50; for Gastric ulcers (X ± SE), No. / Gastric ulcers (X ± SE), mm / Rats with gastric ulcers: oral; for Gastric ulcers (X ± SE), No.: number of ulcerated spots; for Gastric ulcers (X ± SE), mm: sum of maximum diameters; for Rats with gastric ulcers: ulceration 2 mm and over
# Experimental: (§1) Male rats weithing 250-280 g were starved for 18 h but allowed free access to water and the drugs were delivered by esophageal tube (suspension in 0.2% Tween 80 aqueous solution, 10 ml/Kg).
# (§2) Control animals received the vehicle only (10 ml/Kg).
# (§3) Five hours after drug administration the rats were killed.
# (§4) The stomach was slit along the lesser curvature, washed under running water and examined for haemorrhagic lesions in the glandular part of the mucosa: these lesions will be conventionally defined as `ulcers`.
# (§5) The following were recorded:
# (§6) (a) the sum of the maximum diameters of all the ulcerated spots;
# (§7) (b) the number of ulcerated spots.
# (§8) The UD50 was calculated by the method of LITCHFIELD and WILCOXON (Litchfield J. T., Wilcoxon F. J. Pharm. Exp. Ther. 96, 99-113, 1949), all animals with gastric lesion whose sum (a) was 2 mm or more being rated as `ulcerated`.
# [3] = as above; assay type: in vivo; conditions: rat, in vivo, po
# Experimental: as §1, §2, §3, §4, §5, §6, §7, §8
# [4] = test system: phenylquinone writhings in the mouse; assay: Phenylquinone writhings in the mouse; assay type: in vivo; conditions: for ED50: Mus musculus, from dose-response curves; for ED50 / % inhibition vs controls (writhings) / No. of writhings (X ± SE): oral
# Experimental: The method used was that of SIEGMUND et al. (Siegmund et al. J. Pharmacol. Exp. Ther. 119, 184, 1957) modified (Arzneim. Forsch. 31(1), 87, 1981).
# Male mice, 19-22 g, fasted for 18 h with free access to water, received the test drugs suspended in 0.2% Tween 80 aqueous solution (10 ml/Kg) by esophageal tube, the controls receiving the vehicle only.
# One hour later all the animals were given an intraperitoneal injection of 0.02% phenylquinone solution in 5% aqueous ethanol (10 ml/Kg).
# A `blind` observer recorded the number of writhings in each animal from the 5th to the 15th min after phenylquinone administration.
# [5] = Determination of the therapeutical index (UD50/ED40); assay type: in vivo, rat; conditions: gastric ulcers UD50 / paw edema ED40
# Experimental: From the UD50 /ED40 ratio (antiinflammatory activity values obtained from the regression lines for dose--AUC) the therapeutic index were calculated (Table 5).
# [6] = test system: Carrageenin-induced paw edema in the rat; assay: Carrageenin paw edema in the rat; assay type: in vivo; conditions: for % inhibition vs controls, AUC (paw edema): AUC of paw volume against time
# Experimental: Paw edema was induced in male rats fasted for 18 h but with free access to water, by the method of WINTER et al. (Winter C. A. et al. Proc. Soc. Exp. Biol. Med. 111, 544, 1962) injecting 0.1 ml carrageenin 1% in physiological saline into the right hind paw aponeurosis.
# 60 min before induction of edema the drugs suspended in 0.2% Tween
# 80 aqueous solution were dosed by gastric tube (20 ml/Kg); the controls received the vehicle only.
# The volume of the right paw was measured by plethysmography immediately before (time 0) and 1, 2, 3, 4, 6 h after subplantar injection of the irritant.
# The area under the curve expressing the paw volume plotted against time (AUC) was calculated for each animal.
# The results, expressed as percent inhibition of edema development in treated animals as compared to the controls and as ED40 values obtained from the regression lines for dose-AUC, are reported in Table 2.
# [7] = Rattus norvegicus, oral, from regression lines for dose-AUC (Table 2), read-out: ED40
# [8] = restated in Table 5, from regression lines for dose-AUC
structure (smiles),measurement,setting,value
"CSc1cc(NC(=Nc2nccs2)NC2CCCCC2)c2ccccc2n1 [Compound I, N-cyclohexyl-N""-4-(2-methylthioquinolyl)-N'-2-thiazolyl-guanidine]",LD50,[1]; po,> 1000 mg/kg
same,Potency ratio relative to timegadine,[2],0.47
same,gastric irritant potential compared with timegadine,[2]; in words,lesser gastric irritant potential
same,"Gastric ulcers (X ± SE), No.",[2]; 115 μmol/Kg,0.5 ± 0.3
same,"Gastric ulcers (X ± SE), mm",[2]; 115 μmol/Kg,0.5 ± 0.3 mm
same,Rats with gastric ulcers,[2]; 115 μmol/Kg,1/10
same,"Gastric ulcers (X ± SE), No.",[2]; 230 μmol/Kg,0.6 ± 0.3
same,"Gastric ulcers (X ± SE), mm",[2]; 230 μmol/Kg,1.2 ± 0.8 mm
same,Rats with gastric ulcers,[2]; 230 μmol/Kg,1/10
same,"Gastric ulcers (X ± SE), No.",[2]; 461 μmol/Kg,2.1 ± 1.0
same,"Gastric ulcers (X ± SE), mm",[2]; 461 μmol/Kg,3.8 ± 1.8 mm
same,Rats with gastric ulcers,[2]; 461 μmol/Kg,4/10
same,"Gastric ulcers (X ± SE), No.",[2]; 922 μmol/Kg,4.8 ± 1.5
same,"Gastric ulcers (X ± SE), mm",[2]; 922 μmol/Kg,8.7 ± 3.5 mm
same,Rats with gastric ulcers,[2]; 922 μmol/Kg,5/10
same,TD50 at 5 h,[3],887 µmol/kg
same,ED50,[4],18.7 µmol/kg
same,analgesic activity compared with timegadine,[4]; in words,higher than those of timegadine
same,% inhibition vs controls (writhings),[4]; 18.3 μmol/Kg,47.0%
same,No. of writhings (X ± SE),[4]; 18.3 μmol/Kg,19.5 ± 4.8
same,% inhibition vs controls (writhings),[4]; 55 μmol/Kg,79.3%
same,No. of writhings (X ± SE),[4]; 55 μmol/Kg,7.6 ± 2.4
same,% inhibition vs controls (writhings),[4]; 164 μmol/Kg,96.5%
same,No. of writhings (X ± SE),[4]; 164 μmol/Kg,1.3 ± 0.5
same,Potency ratio relative to timegadine,"[4]; phenylquinone writhings, ED50",3.1
same,T.I. (UD50/ED40),[5],7.99
same,ED40,[6]; [7],111 µmol/kg
same,Potency ratio relative to timegadine,"[6]; carrageenin paw edema, ED40 (Table 2)",1.32
same,antiinflammatory activity compared with timegadine,[6]; in words,higher than those of timegadine
same,"% inhibition vs controls (paw edema), 1 h","[6]; oral, 30 μmol/kg",4%
same,"% inhibition vs controls (paw edema), 2 h","[6]; oral, 30 μmol/kg",47%
same,"% inhibition vs controls (paw edema), 3 h","[6]; oral, 30 μmol/kg",40%
same,"% inhibition vs controls (paw edema), 4 h","[6]; oral, 30 μmol/kg",28%
same,"% inhibition vs controls (paw edema), 6 h","[6]; oral, 30 μmol/kg",8%
same,"% inhibition vs controls, AUC (paw edema)","[6]; oral, 30 μmol/kg",27.9%
same,"% inhibition vs controls (paw edema), 1 h","[6]; oral, 91 μmol/kg",13%
same,"% inhibition vs controls (paw edema), 2 h","[6]; oral, 91 μmol/kg",51%
same,"% inhibition vs controls (paw edema), 3 h","[6]; oral, 91 μmol/kg",48%
same,"% inhibition vs controls (paw edema), 4 h","[6]; oral, 91 μmol/kg",42%
same,"% inhibition vs controls (paw edema), 6 h","[6]; oral, 91 μmol/kg",17%
same,"% inhibition vs controls, AUC (paw edema)","[6]; oral, 91 μmol/kg",37.3%
same,"% inhibition vs controls (paw edema), 1 h","[6]; oral, 274 μmol/kg",17%
same,"% inhibition vs controls (paw edema), 2 h","[6]; oral, 274 μmol/kg",53%
same,"% inhibition vs controls (paw edema), 3 h","[6]; oral, 274 μmol/kg",58%
same,"% inhibition vs controls (paw edema), 4 h","[6]; oral, 274 μmol/kg",56%
same,"% inhibition vs controls (paw edema), 6 h","[6]; oral, 274 μmol/kg",33%
same,"% inhibition vs controls, AUC (paw edema)","[6]; oral, 274 μmol/kg",49.0%
same,ED40,[6]; [8],111 µmol/kg
"Cc1cc(/N=C(\Nc2nccs2)NC2CCCCC2)c2ccccc2n1 [timegadine, N-cyclohexyl-N""-4-(2-methylquinolyl)-N'-2-thiazolyl guanidine, reference compound]",LD50,"[1]; oral, single administration, male mice, interpolation on Probits paper",> 1000 mg/kg
same,Potency ratio relative to timegadine,[2],1
same,"Gastric ulcers (X ± SE), No.",[2]; 115 μmol/Kg,0.3 ± 0.2
same,"Gastric ulcers (X ± SE), mm",[2]; 115 μmol/Kg,0.4 ± 0.2 mm
same,Rats with gastric ulcers,[2]; 115 μmol/Kg,0/10
same,"Gastric ulcers (X ± SE), No.",[2]; 230 μmol/Kg,0.8 ± 0.3
same,"Gastric ulcers (X ± SE), mm",[2]; 230 μmol/Kg,1.3 ± 0.7 mm
same,Rats with gastric ulcers,[2]; 230 μmol/Kg,2/10
same,"Gastric ulcers (X ± SE), No.",[2]; 461 μmol/Kg,4.4 ± 1.5
same,"Gastric ulcers (X ± SE), mm",[2]; 461 μmol/Kg,6.7 ± 2.3 mm
same,Rats with gastric ulcers,[2]; 461 μmol/Kg,6/10
same,"Gastric ulcers (X ± SE), No.",[2]; 922 μmol/Kg,9.4 ± 1.8
same,"Gastric ulcers (X ± SE), mm",[2]; 922 μmol/Kg,18.5 ± 4.4 mm
same,Rats with gastric ulcers,[2]; 922 μmol/Kg,9/10
same,TD50 at 5 h,[3],413 µmol/kg
same,ED50,[4],58.9 µmol/kg
same,% inhibition vs controls (writhings),[4]; 18.3 μmol/Kg,26.1%
same,No. of writhings (X ± SE),[4]; 18.3 μmol/Kg,27.2 ± 4.1
same,% inhibition vs controls (writhings),[4]; 55 μmol/Kg,36.4%
same,No. of writhings (X ± SE),[4]; 55 μmol/Kg,23.4 ± 4.6
same,% inhibition vs controls (writhings),[4]; 164 μmol/Kg,82.1%
same,No. of writhings (X ± SE),[4]; 164 μmol/Kg,6.6 ± 2.9
same,T.I. (UD50/ED40),[5],2.83
same,ED40,[6]; [7],147 µmol/kg
same,"% inhibition vs controls (paw edema), 1 h","[6]; oral, 30 μmol/kg",17%
same,"% inhibition vs controls (paw edema), 2 h","[6]; oral, 30 μmol/kg",18%
same,"% inhibition vs controls (paw edema), 3 h","[6]; oral, 30 μmol/kg",11%
same,"% inhibition vs controls (paw edema), 4 h","[6]; oral, 30 μmol/kg",15%
same,"% inhibition vs controls (paw edema), 6 h","[6]; oral, 30 μmol/kg",4%
same,"% inhibition vs controls, AUC (paw edema)","[6]; oral, 30 μmol/kg",12.3%
same,"% inhibition vs controls (paw edema), 1 h","[6]; oral, 91 μmol/kg",38%
same,"% inhibition vs controls (paw edema), 2 h","[6]; oral, 91 μmol/kg",51%
same,"% inhibition vs controls (paw edema), 3 h","[6]; oral, 91 μmol/kg",30%
same,"% inhibition vs controls (paw edema), 4 h","[6]; oral, 91 μmol/kg",27%
same,"% inhibition vs controls (paw edema), 6 h","[6]; oral, 91 μmol/kg",9%
same,"% inhibition vs controls, AUC (paw edema)","[6]; oral, 91 μmol/kg",28.4%
same,"% inhibition vs controls (paw edema), 1 h","[6]; oral, 274 μmol/kg",33%
same,"% inhibition vs controls (paw edema), 2 h","[6]; oral, 274 μmol/kg",55%
same,"% inhibition vs controls (paw edema), 3 h","[6]; oral, 274 μmol/kg",58%
same,"% inhibition vs controls (paw edema), 4 h","[6]; oral, 274 μmol/kg",57%
same,"% inhibition vs controls (paw edema), 6 h","[6]; oral, 274 μmol/kg",44%
same,"% inhibition vs controls, AUC (paw edema)","[6]; oral, 274 μmol/kg",52.9%
same,ED40,[6]; [8],147 µmol/kg
